Laboratory results taken from article PMC7076875 (2020).

System: apt 32 (DNA, aptamer) AAAAAAAAAAAAGGGCACGTGTTGTCTCTCTGTGTCTCGTGCCC
Assay: lateral flow strip, competition with complementary strand
Conditions: 120 mM NaCl, 5 mM KCl, 200 mM MgCl2; 10 mM Tris pH 7.4, 5% methanol, room temperature; immobilised probe 2 competes; tested at 100 ng/mL

binding, no:
CCCC[C@@H](C)[C@@H](OC(=O)C[C@@H](CC(=O)O)C(=O)O)[C@H](C[C@@H](C)C[C@H](O)CCCC[C@@H](O)C[C@H](O)[C@H](C)N)OC(=O)C[C@@H](CC(=O)O)C(=O)O
C[C@@H]1Cc2c(Cl)cc(C(=O)N[C@@H](Cc3ccccc3)C(=O)O)c(O)c2C(=O)O1
C[C@H]1CCCC(=O)CCC/C=C/c2cc(O)cc(O)c2C(=O)O1
